Like-named read-outs stand apart in the source and are kept apart here. Marks after values point to notes of the source that are not given here.
Tests used:
α7 nAChR [1] = assay: HEK293 cells transfected with α7 nAChRs (ASEM, literature); assay type: binding; details: from cited affinities
α4β2 nAChR [2] = target: α4β2 nAChR; set-up: method as in PMID 24050653; details: HEK293 cells transfected with α4β2 nAChRs; read-out: Binding affinity α4β2*; cited from earlier work
α7 nAChR [3] = target: α7 nAChR; set-up: method as in PMID 24050653; details: HEK293 cells transfected with α7 nAChRs; read-out: Binding affinity α7*; cited from earlier work
human α4β2 nAChR [4] = details: cytisine, from cited affinities
human α4β2 nAChR [5] = details: cited from earlier work
human α7 nAChR = details: read-out: Binding affinity α7*; human α7 nAChR in SH-SY5Y cells; cited from earlier work
α7 nAChR [6] = assay: HEK293 membranes expressing α7 nAChRs (Iodo-ASEM, literature); assay type: binding; details: IodoASEM, from cited affinities
α4β2 nAChR [7] = target: α4β2 nAChR; set-up: method as in PMID 25687449; details: HEK293 membranes expressing α4β2 nAChRs; read-out: Binding affinity α4β2*; cited from earlier work
α7 nAChR [8] = target: α7 nAChR; set-up: method as in PMID 25687449; details: cited from earlier work
α4β2* nAChR [9] = target: T1, α4β2* nAChR (Rattus norvegicus, UniProt P09483+P12390); assay: [3H]cytisine competition binding on rat brain slices (autoradiography)
T1 construct: Horizontal brain slices, 10 µm thick from male Sprague Dawley rats; from tissue; host or cells: rat brain slices (male Sprague Dawley), several brain regions
Description: Our previously published procedures were used for [^3H]cytisine experiments. Horizontal brain slices, 10 µm thick from male Sprague Dawley rats, were preincubated in the buffer (50 mmol/L Tris HCl containing 120 mmol/L NaCl, 5 mmol/L KCl, 2.5 mmol/L CaCl2, 1 mmol/L MgCl2, pH 7.4) for 10 min. The pre-incubation buffer was then discarded and the slices were incubated with [^3H]cytisine (2.5 nM, specific activity of 32.7 Ci/mmol) at 2 °C for 75 min. […] After incubation, slices were washed twice (2 min each wash) with ice-cold Tris buffer, pH 7.4, followed by a quick rinse in cold (0–5 °C) deionized water. The slides were then air dried and the radiolabeled brain sections were apposed on storage phosphor screens for two weeks (Perkin Elmer Multisensitive, Medium MS, New Jersy, USA). For autoradiographic analysis, the apposed phosphor screens were read and analyzed by OptiQuant acquisition and analysis program of the Cyclone Storage Phosphor System (Packard Instruments Co., Boston, MA, USA). Regions of interest of same size were drawn and analyzed on brain regions using OptiQuant software version 2 and binding of [^3H]cytisine measured in DLU/mm^2. Data were analyzed using following procedure: (a) the non-specific binding of [^3H]cytisine was subtracted for all samples; (b) the specific binding was normalized to 100% (no competitive ligand); and (c) the binding isotherms were fit to the Hill equation (KELL BioSoft software (v 6), Cambridge, UK).

α7 nAChR [10] = target: T2, α7 nAChR (Rattus norvegicus, UniProt Q05941); assay: biochemical; assay type: binding
α4β2* nAChR [11] = target: T1, α4β2* nAChR; assay type: binding
α4β2* nAChR [12] = target: T1, α4β2* nAChR; assay: Rat brain homogenates labeled with 3H-cytisine (literature); assay type: binding; details: α4β2 value from 3H-cytisine rat brain homogenates, α7 from rat cloned receptors
α4β2* nAChR [13] = target: T1, α4β2* nAChR; details: read-out: Binding affinity α4β2*; rat brain cortex labeled with 3H-epibatidine; cited from earlier work
α7 nAChR [14] = target: T2, α7 nAChR; set-up: method as in PMID 28875553; details: rat cloned receptors labeled with α-[125I]BuTX; read-out: Binding affinity α7*; cited from earlier work
α7 nAChR [15] = target: T2, α7 nAChR; assay type: binding
α4β2* nAChR [16] = details: cited from earlier work
α7 nAChR [17] = target: T2, α7 nAChR; set-up: method as in PMID 18445710; details: tested in rat; read-out: Binding affinity α7*; cited from earlier work
[18] = frontal cortex values taken from Table 1

## O=S1(=O)c2cc(N3CCN4CCC3CC4)ccc2-c2cccc(F)c21 [ASEM]
α7 nAChR [1]
  α7/α4β2 Ratio: 0.0007
α4β2 nAChR [2]
  Ki: 562 nM
α7 nAChR [3]
  Ki: 0.37 nM

## O=c1cccc2n1C[C@@H]1CNC[C@H]2C1 [Cytisine]
Human α4β2 nAChR [4]
  α4β2/α7 Ratio: 0.002
Human α4β2 nAChR [5]; heterologously expressed human receptors
  α7/α4β2 Ratio: 544 ^e
Human α4β2 nAChR [5]; read-out: Binding affinity α4β2*, human α4β2 in HEK293 cells
  Ki: 1.27 nM
Human α7 nAChR
  Ki: 691 nM

## O=S1(=O)c2cc(N3CCN4CCC3CC4)ccc2-c2cccc(I)c21 [IodoASEM]
α7 nAChR [6]
  α7/α4β2 Ratio: 0.0003
α4β2 nAChR [7]
  Ki: 1710 nM
α7 nAChR [8]; HEK293 membranes expressing α7 nAChRs, read-out: Binding affinity α7*
  Ki: 0.5 nM
α7 nAChR [8]; HEK293 membranes
  α4β2/α7 Ratio: 3414 ^h

## c1ncc(N2CCN3CCC2CC3)cc1OCC1CCN1 [KS7, 3-(2-(S)-azetidinylmethoxy)-5-(1,4-diaza-bicyclo[3.2.2]nonane)pyridine]
α4β2* nAChR [9]; frontal cortex value taken from Table 1, read-out: Binding affinity α4β2*
  IC50: 109 nM
α4β2* nAChR [9]; [18]
  α4β2/α7 Ratio: 0.01 ^j
  α7/α4β2 Ratio: 91 ^j
α4β2* nAChR [9]; rat brain slices, Anterior Cingulate, read-out: Inhibition constants (IC50), [3H]Cytisine, α4β2* nAChRs
  IC50: 49.5 nM
α4β2* nAChR [9]; rat brain slices, Frontal Cortex, read-out: Inhibition constants (IC50), [3H]Cytisine, α4β2* nAChRs
  IC50: 109 nM
α4β2* nAChR [9]; rat brain slices, Striatum, read-out: Inhibition constants (IC50), [3H]Cytisine, α4β2* nAChRs
  IC50: 86.9 nM
α4β2* nAChR [9]; rat brain slices, Subiculum, read-out: Inhibition constants (IC50), [3H]Cytisine, α4β2* nAChRs
  IC50: 172 nM
α4β2* nAChR [9]; rat brain slices, Thalamus, read-out: Inhibition constants (IC50), [3H]Cytisine, α4β2* nAChRs
  IC50: 134 nM
α4β2* nAChR [9]; rat brain, several brain regions (abstract), read-out: IC50 for [3H]cytisine radiolabeled sites
  IC50: 50 to 172 nM
α4β2* nAChR [9]; ratio of IC50 values, Anterior Cingulate
  α7/α4β2 Ratio: 254
α4β2* nAChR [9]; ratio of IC50 values, Frontal Cortex
  α7/α4β2 Ratio: 91
α7 nAChR [10]; frontal cortex value taken from Table 1, read-out: Binding affinity α7*
  IC50: 9.9 µM
α7 nAChR [10]; rat brain slices, Anterior Cingulate, read-out: Inhibition constants (IC50), [125I]α-BuTX, α7* nAChRs
  IC50: 12.6 µM
α7 nAChR [10]; rat brain slices, Frontal Cortex, read-out: Inhibition constants (IC50), [125I]α-BuTX, α7* nAChRs
  IC50: 9.9 µM
α7 nAChR [10]; rat brain slices, Hippocampus, read-out: Inhibition constants (IC50), [125I]α-BuTX, α7* nAChRs
  IC50: 33.2 µM
α7 nAChR [10]; rat brain slices, Inferior Colliculus, read-out: Inhibition constants (IC50), [125I]α-BuTX, α7* nAChRs
  IC50: 46.8 µM

## Fc1ncccc1OC[C@@H]1C=CCN1 [Nifene]
α4β2* nAChR [11]; listed as with α4β2 value from 3H-epibatidine rat cortex
  α4β2/α7 Ratio: 0.007
α4β2* nAChR [11]; α4β2 value from 3H-epibatidine rat cortex, α7 from rat cloned receptors
  α7/α4β2 Ratio: 158
α4β2* nAChR [12]
  α7/α4β2 Ratio: 338
α4β2* nAChR [13]
  Ki: 1.07 nM
α7 nAChR [14]
  Ki: 169 nM

## α-Iodobungarotoxin
α7 nAChR [15]
  α4β2/α7 Ratio: 2000
  α7/α4β2 Ratio: 0.0005
α4β2* nAChR [16]
  Binding affinity α4β2*: >1000 ^f nM
α7 nAChR [17]
  Ki: 0.5 nM
